Source: ChEMBL document CHEMBL4602709 (ACS Med Chem Lett, 2020)

Columns and labels:
[1] = biological target: Tyrosine-protein kinase ABL1 (Homo sapiens, UniProt P00519); assay: Inhibition of ABL1 (unknown origin) assessed as residual activity incubated for 5 mins in presence of [gamma-33ATP] by scintillation counting based radiometry assay
[2] = biological target: Serine/threonine-protein kinase Nek6 (Homo sapiens, UniProt Q9HC98); assay: Inhibition of NEK6 (unknown origin) assessed as residual activity incubated for 5 mins in presence of [gamma-33ATP] by scintillation counting based radiometry assay
[3] = biological target: T1, Ephrin type-B receptor 3 (Homo sapiens, UniProt P54753); assay: Inhibition of EPHB3 (unknown origin) assessed as residual activity incubated for 5 mins in presence of [gamma-33ATP] by scintillation counting based radiometry assay
T1 sequence (P54753 whole entry): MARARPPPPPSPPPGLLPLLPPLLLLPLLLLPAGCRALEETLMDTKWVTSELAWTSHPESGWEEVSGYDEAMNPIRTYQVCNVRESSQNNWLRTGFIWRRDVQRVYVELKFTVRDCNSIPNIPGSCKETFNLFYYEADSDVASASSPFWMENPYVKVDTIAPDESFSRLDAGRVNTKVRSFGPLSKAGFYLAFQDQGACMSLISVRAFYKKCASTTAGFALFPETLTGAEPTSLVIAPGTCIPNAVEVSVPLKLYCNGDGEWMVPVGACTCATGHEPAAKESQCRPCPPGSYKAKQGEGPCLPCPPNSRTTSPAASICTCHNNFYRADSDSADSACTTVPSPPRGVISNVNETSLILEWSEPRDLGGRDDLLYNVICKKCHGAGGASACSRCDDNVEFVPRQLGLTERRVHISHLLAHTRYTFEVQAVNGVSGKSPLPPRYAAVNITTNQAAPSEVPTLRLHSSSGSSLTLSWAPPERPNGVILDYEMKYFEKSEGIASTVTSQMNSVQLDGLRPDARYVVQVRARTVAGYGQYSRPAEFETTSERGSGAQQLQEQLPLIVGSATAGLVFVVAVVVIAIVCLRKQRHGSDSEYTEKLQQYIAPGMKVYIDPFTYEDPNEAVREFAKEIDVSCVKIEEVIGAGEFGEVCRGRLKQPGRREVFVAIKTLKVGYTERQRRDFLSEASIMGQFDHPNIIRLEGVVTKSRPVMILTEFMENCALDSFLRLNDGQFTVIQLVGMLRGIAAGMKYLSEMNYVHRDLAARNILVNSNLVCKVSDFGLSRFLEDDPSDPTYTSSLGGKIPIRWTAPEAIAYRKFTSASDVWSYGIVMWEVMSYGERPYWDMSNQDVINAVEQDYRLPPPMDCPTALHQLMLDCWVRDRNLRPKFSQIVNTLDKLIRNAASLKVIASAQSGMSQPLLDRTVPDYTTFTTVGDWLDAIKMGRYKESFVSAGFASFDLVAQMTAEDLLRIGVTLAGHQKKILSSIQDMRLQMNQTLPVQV

[4] = biological target: T2, Discoidin domain-containing receptor 2 (Homo sapiens, UniProt Q16832); assay: Inhibition of DDR2 (unknown origin) assessed as residual activity incubated for 5 mins in presence of [gamma-33ATP] by scintillation counting based radiometry assay
T2 sequence (Q16832 whole entry): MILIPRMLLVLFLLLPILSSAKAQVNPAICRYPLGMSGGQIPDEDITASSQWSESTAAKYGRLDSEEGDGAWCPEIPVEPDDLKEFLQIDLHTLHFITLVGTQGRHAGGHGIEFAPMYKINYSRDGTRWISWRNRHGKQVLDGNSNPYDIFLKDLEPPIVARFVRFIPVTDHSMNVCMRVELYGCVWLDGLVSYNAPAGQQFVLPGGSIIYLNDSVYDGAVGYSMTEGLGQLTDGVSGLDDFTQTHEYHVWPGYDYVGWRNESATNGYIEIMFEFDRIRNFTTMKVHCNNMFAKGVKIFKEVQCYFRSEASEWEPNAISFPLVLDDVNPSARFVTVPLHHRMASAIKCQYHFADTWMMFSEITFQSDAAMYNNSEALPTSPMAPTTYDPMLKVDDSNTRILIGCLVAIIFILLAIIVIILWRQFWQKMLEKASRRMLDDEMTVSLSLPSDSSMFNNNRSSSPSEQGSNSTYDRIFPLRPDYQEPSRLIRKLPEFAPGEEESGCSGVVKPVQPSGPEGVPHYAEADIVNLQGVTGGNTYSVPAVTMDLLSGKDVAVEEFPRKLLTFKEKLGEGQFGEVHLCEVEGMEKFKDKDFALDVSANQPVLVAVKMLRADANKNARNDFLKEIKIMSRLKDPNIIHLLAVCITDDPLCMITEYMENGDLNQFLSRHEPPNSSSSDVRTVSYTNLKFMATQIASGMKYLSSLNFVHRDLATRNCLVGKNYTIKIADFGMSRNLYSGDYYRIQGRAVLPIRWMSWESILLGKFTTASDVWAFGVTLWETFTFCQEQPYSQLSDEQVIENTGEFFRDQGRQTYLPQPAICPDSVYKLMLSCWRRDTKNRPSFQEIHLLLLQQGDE

Chain of Tyrosine-protein kinase ABL1 (P00519 whole entry): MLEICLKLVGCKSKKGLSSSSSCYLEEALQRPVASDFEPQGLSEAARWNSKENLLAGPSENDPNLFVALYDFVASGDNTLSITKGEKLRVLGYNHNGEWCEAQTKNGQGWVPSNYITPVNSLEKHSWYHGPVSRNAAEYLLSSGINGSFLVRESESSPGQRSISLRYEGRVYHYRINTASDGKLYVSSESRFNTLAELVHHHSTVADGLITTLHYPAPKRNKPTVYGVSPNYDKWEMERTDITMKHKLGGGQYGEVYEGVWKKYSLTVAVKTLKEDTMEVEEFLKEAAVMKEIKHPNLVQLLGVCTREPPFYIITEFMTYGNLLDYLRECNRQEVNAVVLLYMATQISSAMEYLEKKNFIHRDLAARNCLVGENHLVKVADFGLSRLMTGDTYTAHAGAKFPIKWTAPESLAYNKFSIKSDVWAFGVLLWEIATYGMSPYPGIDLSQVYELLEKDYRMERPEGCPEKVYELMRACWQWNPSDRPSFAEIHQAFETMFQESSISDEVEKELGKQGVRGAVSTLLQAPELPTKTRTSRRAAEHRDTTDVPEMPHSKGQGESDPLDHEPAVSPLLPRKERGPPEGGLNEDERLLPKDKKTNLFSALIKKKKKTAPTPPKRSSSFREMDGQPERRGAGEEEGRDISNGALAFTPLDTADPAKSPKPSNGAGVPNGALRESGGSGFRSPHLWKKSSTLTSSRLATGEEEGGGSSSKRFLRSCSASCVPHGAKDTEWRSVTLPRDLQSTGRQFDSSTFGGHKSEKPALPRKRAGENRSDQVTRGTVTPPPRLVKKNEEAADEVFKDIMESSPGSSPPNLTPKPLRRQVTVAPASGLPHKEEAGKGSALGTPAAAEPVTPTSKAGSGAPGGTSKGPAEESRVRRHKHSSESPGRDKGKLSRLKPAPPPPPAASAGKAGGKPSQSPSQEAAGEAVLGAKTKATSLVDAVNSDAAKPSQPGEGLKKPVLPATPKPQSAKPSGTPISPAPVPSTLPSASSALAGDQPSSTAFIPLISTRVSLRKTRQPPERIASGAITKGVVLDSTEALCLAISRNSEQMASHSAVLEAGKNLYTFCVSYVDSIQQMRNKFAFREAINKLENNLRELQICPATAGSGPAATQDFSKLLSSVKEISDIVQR
Chain of Serine/threonine-protein kinase Nek6 (Q9HC98 whole entry): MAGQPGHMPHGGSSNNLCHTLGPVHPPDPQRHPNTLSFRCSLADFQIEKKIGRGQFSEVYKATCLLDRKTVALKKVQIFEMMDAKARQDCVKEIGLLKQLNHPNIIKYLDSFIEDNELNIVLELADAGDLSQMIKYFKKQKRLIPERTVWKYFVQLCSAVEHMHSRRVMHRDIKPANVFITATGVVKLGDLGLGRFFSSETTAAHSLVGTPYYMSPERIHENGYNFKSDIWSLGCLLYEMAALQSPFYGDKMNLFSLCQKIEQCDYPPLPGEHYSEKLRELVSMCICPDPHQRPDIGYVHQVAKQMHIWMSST

IC50 [1]: 1.3 nM
IC50 [2]: 5350 nM
IC50 [3]: 19.5 nM
IC50 [4]: 286 nM
SMILES: Cc1ccc(C(=O)Nc2ccc(CN3Cc4cn[nH]c4C3)c(Cl)c2)cc1C#Cc1cnc2cccnn12
